Among the data in patent US20260022143A1, “Cyclic Peptide Inhibitors of IL-23” (JANSSEN PHARMACEUTICA NV, priority 2022, published 2026) are IC50 and EPSA values, retold here.

pIC50: −log10 of the molar value. Starred links: 1 amine or outer side, 2 acyl side, 3 side chain; linkers in the order of their positions; H or OH if unused. Positions of bridges follow the written chain, without caps; N, C: chain ends. Non-standard residues stand in square brackets, D forms with d. Residues, ends and D or L forms follow the SMILES beside them. Groups on a side chain read outwards from the residue. *: point of attachment. Me3N+(CH2)2O(CH2)2O(CH2)2CO = C[N+](C)(C)CCOCCOCCC(=O)*; Phe(4-N3) = [N-]=[N+]=Nc1ccc(C[C@H](N)C(=O)O)cc1; Trp(7-Me) = Cc1cccc2c(C[C@H](N)C(=O)O)c[nH]c12; d(hLys(Me3)) = C[N+](C)(C)CCCCC[C@@H](N)C(=O)O; Decanoyl(3,6,9-trioxa) = COCCOCCOCC(=O)*; Dab(NMeAc) = CC(=O)N(C)CC[C@H](N)C(=O)O; γGlu = O=C(O)[C@H](CCC(=O)[*:2])N[*:1]; 2Nal = N[C@@H](Cc1ccc2ccccc2c1)C(=O)O; AEF = NCCOc1ccc(C[C@H](N)C(=O)O)cc1; X24 = C[N+](C)(CCN[*:1])CC(=O)[*:2]; X65 = COCCOCCC[N+](C)(CCCOCCOC)CC*; 3Pal = N[C@@H](Cc1cccnc1)C(=O)O; X54 = CC(=O)N(CC[N+](C)(C)C)CC*; Lys(Me) = CNCCCC[C@H](N)C(=O)O; NMeK = CN[C@@H](CCCCN)C(=O)O; Pen = CC(C)(S)[C@H](N)C(=O)O; Lauroyl = CCCCCCCCCCCC(=O)*; Thp = NC1(C(=O)O)CCOCC1; X3 = C[N+](C)(C)CCCCC*; AEEA = NCCOCCOCC(=O)O; X12 = C[N+](C)(C)CCC*; Sar = CNCC(=O)O

Data set [1] has as its target T1, IL-23R (Homo sapiens, UniProt Q5VWK5).
T1 construct: host or cells: HEK293
T1 sequence (Q5VWK5 24-629): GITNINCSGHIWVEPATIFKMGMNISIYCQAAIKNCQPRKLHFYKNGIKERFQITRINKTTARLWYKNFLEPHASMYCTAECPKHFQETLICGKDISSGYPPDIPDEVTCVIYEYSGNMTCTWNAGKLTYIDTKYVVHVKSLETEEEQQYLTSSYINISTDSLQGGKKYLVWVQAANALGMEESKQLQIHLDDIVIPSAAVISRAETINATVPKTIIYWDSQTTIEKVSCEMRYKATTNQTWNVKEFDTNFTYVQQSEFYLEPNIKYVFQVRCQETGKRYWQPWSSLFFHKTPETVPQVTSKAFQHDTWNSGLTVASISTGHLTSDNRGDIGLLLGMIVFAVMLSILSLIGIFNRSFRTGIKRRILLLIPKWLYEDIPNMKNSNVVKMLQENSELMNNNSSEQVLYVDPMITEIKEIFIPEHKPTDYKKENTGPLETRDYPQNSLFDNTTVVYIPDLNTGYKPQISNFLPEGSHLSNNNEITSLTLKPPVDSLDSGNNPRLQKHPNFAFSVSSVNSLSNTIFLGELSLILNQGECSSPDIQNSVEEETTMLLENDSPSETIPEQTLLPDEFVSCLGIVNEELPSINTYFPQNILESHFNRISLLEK
Put plainly: IL23R Reporter Assay. In kind it is cell-based. The settings on record: HEK293 cells containing IL-23R, IL-12RP1 and STAT-inducible firefly luciferase reporter; 10 ng/mL IL-23 (EC90); 5 h at 37° C.; read-out: IL23R Reporter Assay.

The nature of data set [2]: Exposed Polar Surface Area (EPSA). In kind it is physicochemical. The settings on record: SFC on Chirex 3014 column; sample 1 mM DMSO stock; read-out: EPSA. The procedure, abridged: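 Polarity measured by SFC on a Chirex 3014 column (35 °C, 4 mL/min) with methanol/ammonium formate in CO2 as gradient eluent. Retention times were normalised to EPSA (Å^2) against eight reference compounds.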

Regarding `CC(=O)N[C@H](CCCCC[N+](C)(C)C)C(=O)N[C@@H]1C(=O)N[C@@H](CC(=O)N(C)C)C(=O)N[C@@H]([C@@H](C)O)C(=O)N[C@@H](Cc2c[nH]c3c(C)cccc23)C(=O)N[C@@H](CCCCN(C)C(C)=O)C(=O)N[C@H](C(=O)N[C@@H](Cc2ccc(OCCCCC[N+](C)(C)C)cc2)C(=O)N[C@@H](Cc2ccc3ccccc3c2)C(=O)NC2(C(=O)N[C@@H](CCCCN(C)C(C)=O)C(=O)N[C@@H](CC(N)=O)C(=O)N[C@@H](Cc3cccnc3)C(=O)N(C)CC(=O)N(C)C)CCOCC2)C(C)(C)SSC1(C)C` [compound 344, MeCO-hk(Me)3-Pen(3)-N(N(Me)2)-T-7MeW-K(NMeAc)-Pen(3)-TMAPF-2Nal-THP-K(NMeAc)-N-3Pya-Sar-CON(Me)2] (Ac-[d(hLys(Me3))][Pen]D(NMe2)T[Trp(7-Me)][Lys(Me)](Ac)[Pen]Y(X3)[2Nal][Thp][Lys(Me)](Ac)N[3Pal][Sar]-NMe2; disulfide 2-7), in data set [1], the pIC50 was 8.18. Besides, the EPSA in data set [2] turned out to be 158 A^2.
Take `CC(=O)N(C)CC[C@H](NC(=O)C1(NC(=O)[C@H](Cc2ccc3ccccc3c2)NC(=O)[C@H](Cc2ccc(OCCN)cc2)NC(=O)[C@H]2NC(=O)[C@H](CCC(=O)N(C)C)NC(=O)[C@H](Cc3c[nH]c4c(C)cccc34)NC(=O)[C@H]([C@@H](C)O)NC(=O)[C@H](CC(=O)N(C)C)NC(=O)[C@@H](NC(=O)CCOCCOCC[N+](C)(C)C)C(C)(C)SSC2(C)C)CCOCC1)C(=O)N[C@@H](CC(N)=O)C(=O)N[C@@H](Cc1cccnc1)C(=O)N(C)CC(=O)N(C)C` [compound 159, cPEG3aCO-Pen(3)-N(N(Me)2)-T-7MeW-Q(N(Me)2)-Pen(3)-AEF-2Nal-THP-Dab(NMeAc)-N-3Pya-Sar-CON(Me)2] ({Me3N+(CH2)2O(CH2)2O(CH2)2CO}-[Pen]D(NMe2)T[Trp(7-Me)]E(NMe2)[Pen][AEF][2Nal][Thp][Dab(NMeAc)]N[3Pal][Sar]-NMe2; disulfide 1-6): the pIC50 in data set [1] is 8.74. Besides, the EPSA in data set [2] amounted to 149 A^2.
On to `CC(=O)NCCCC[C@@H]1NC(=O)[C@H](Cc2c[nH]c3c(C)cccc23)NC(=O)[C@H]([C@@H](C)O)NC(=O)[C@H](CC(N)=O)NC(=O)[C@@H](NC(C)=O)C(C)(C)SSC(C)(C)[C@@H](C(=O)N[C@@H](Cc2ccc(N=[N+]=[N-])cc2)C(=O)N[C@@H](Cc2ccc3ccccc3c2)C(=O)NC2(C(=O)N[C@@H](CCCCNC(C)=O)C(=O)N[C@@H](CC(N)=O)C(=O)N[C@@H](Cc3cccnc3)C(=O)N(C)CC(N)=O)CCOCC2)NC1=O` [compound 417] (Ac-[Pen]NT[Trp(7-Me)]K(Ac)[Pen][Phe(4-N3)][2Nal][Thp]K(Ac)N[3Pal][Sar]-NH2; disulfide 1-6 (inferred)), for which the pIC50 in data set [1] is 8.85. The EPSA in data set [2] amounted to 167 A^2.
`COCCOCCC[N+](C)(CCCOCCOC)CCOc1ccc(C[C@H](NC(=O)[C@H]2NC(=O)[C@H](CCCCN(C)C(C)=O)NC(=O)[C@H](Cc3c[nH]c4c(C)cccc34)NC(=O)[C@H]([C@@H](C)O)NC(=O)[C@H](CC(=O)N(C)C)NC(=O)[C@@H](NC(=O)CCOCCOCC[N+](C)(C)C)C(C)(C)SSC2(C)C)C(=O)N[C@@H](Cc2ccc3ccccc3c2)C(=O)NC2(C(=O)N[C@@H](CCCCN(C)C(C)=O)C(=O)N[C@@H](CC(N)=O)C(=O)N[C@@H](Cc3cccnc3)C(=O)N(C)CC(=O)N(C)C)CCOCC2)cc1` [compound 221, cPEG3aCO-Pen(3)-N(N(Me)2)-T-7MeW-K(NMeAc)-Pen(3)-AEF(BisMEPa)-2Nal-THP-K(NMeAc)-N-3Pya-Sar-CON(Me)2Â] ({Me3N+(CH2)2O(CH2)2O(CH2)2CO}-[Pen]D(NMe2)T[Trp(7-Me)][Lys(Me)](Ac)[Pen]Y(X65)[2Nal][Thp][Lys(Me)](Ac)N[3Pal][Sar]-NMe2; disulfide 1-6): the pIC50 in data set [1] is 8.74. The EPSA in data set [2] is 134 A^2.
For the compound `CCCCCCCCCCCC(=O)N[C@@H](CCC(=O)NCCOCCOCC(=O)NCCOCCOCC(=O)NCCCC[C@@H](C(N)=O)N(C)C(=O)[C@H](Cc1cccnc1)NC(=O)[C@H](CC(N)=O)NC(=O)[C@H](CCCCN(C)C(C)=O)NC(=O)C1(NC(=O)[C@H](Cc2ccc3ccccc3c2)NC(=O)[C@H](Cc2ccc(OCCCCC[N+](C)(C)C)cc2)NC(=O)[C@H]2NC(=O)[C@H](CCCCNC(C)=O)NC(=O)[C@H](Cc3c[nH]c4c(C)cccc34)NC(=O)[C@H]([C@@H](C)O)NC(=O)[C@H](CC(N)=O)NC(=O)[C@@H](NC(=O)CCOCCOCC[N+](C)(C)C)C(C)(C)SSC2(C)C)CCOCC1)C(=O)O` [compound 371, cPEG3aCO-Pen(3)-N-T-7MeW-K(Ac)-Pen(3)-TMAPF-2Nal-THP-K(NMeac)-N-3Pya-NMeK(PEG2PEG2gEC12)-CONH2] ({Me3N+(CH2)2O(CH2)2O(CH2)2CO}-[Pen]NT[Trp(7-Me)]K(Ac)[Pen]Y(X3)[2Nal][Thp][Lys(Me)](Ac)N[3Pal][NMeK]([AEEA-AEEA-γGlu-Lauroyl])-NH2; disulfide 1-6), in data set [1], the pIC50 is 8.26. Besides, the EPSA in data set [2] was 182 A^2.
Regarding `CC(=O)N(C)CCCC[C@@H]1NC(=O)[C@H](Cc2c[nH]c3ccccc23)NC(=O)[C@H]([C@@H](C)O)NC(=O)[C@H](CC(=O)N(C)C)NC(=O)[C@@H](NC(=O)CCOCCOCC[N+](C)(C)C)C(C)(C)SSC(C)(C)[C@@H](C(=O)N[C@@H](Cc2ccc(OCCOCCOCC[N+](C)(C)C)cc2)C(=O)N[C@@H](Cc2c[nH]c3ccccc23)C(=O)NC2(C(=O)N[C@@H](CCCCN(C)C(C)=O)C(=O)N[C@@H](CC(N)=O)C(=O)N[C@H]3Cc4cnccc4N(CC(=O)N(C)C)C3=O)CCOCC2)NC1=O` [compound 564, cPEG3aCO-Pen(3)-N(N(Me)2)-T-W-K(NMeAc)-Pen(3)-APEG3F-W-THP-K(NMeAc)-N-3Pya-Sar-CON(Me)2], the pIC50 in data set [1] is 6.74. For the same compound, the EPSA in data set [2] amounted to 153 A^2.
As for `CC(=O)N(C)CCCC[C@@H]1NC(=O)[C@H](Cc2c[nH]c3c(C)cccc23)NC(=O)[C@H]([C@@H](C)O)NC(=O)[C@H](CC(=O)N(C)C)NC(=O)[C@@H](NC(=O)CCOCCOCC[N+](C)(C)C)C(C)(C)SSC(C)(C)[C@@H](C(=O)N[C@@H](Cc2ccc(OCCC[N+](C)(C)C)cc2)C(=O)N[C@@H](Cc2ccc3ccccc3c2)C(=O)NC2(C(=O)N[C@@H](CCCCN(C)C(C)=O)C(=O)N[C@@H](CC(N)=O)C(=O)N[C@@H](Cc3cccnc3)C(=O)N(C)CC(=O)N(C)C)CCOCC2)NC1=O` [compound 229, cPEG3aCO-Pen(3)-N(N(Me)2)-T-7MeW-K(NMeAc)-Pen(3)-TMA3F-2Nal-THP-K(NMeAc)-N-3Pya-Sar-CON(Me)2] ({Me3N+(CH2)2O(CH2)2O(CH2)2CO}-[Pen]D(NMe2)T[Trp(7-Me)][Lys(Me)](Ac)[Pen]Y(X12)[2Nal][Thp][Lys(Me)](Ac)N[3Pal][Sar]-NMe2; disulfide 1-6), in data set [1], the pIC50 is 7.72. Further, the EPSA in data set [2] is 145 A^2.
Consider `COCCOCCOCC(=O)NCC[N+](C)(C)CC(=O)N[C@@H]1C(=O)N[C@@H](CC(=O)N(C)C)C(=O)N[C@@H]([C@@H](C)O)C(=O)N[C@@H](Cc2c[nH]c3c(C)cccc23)C(=O)N[C@@H](CCCCN(C)C(C)=O)C(=O)N[C@H](C(=O)N[C@@H](Cc2ccc(OCCN)cc2)C(=O)N[C@@H](Cc2ccc3ccccc3c2)C(=O)NC2(C(=O)N[C@@H](CCC(=O)N(C)C)C(=O)N[C@@H](CC(N)=O)C(=O)N[C@@H](Cc3cccnc3)C(=O)N(C)CC(N)=O)CCOCC2)C(C)(C)SSC1(C)C` [compound 152, mPEG3CO-SP6-Pen(3)-N(N(Me)2)-T-7MeW-K(NMeAc)-Pen(3)-AEF-2Nal-THP-QNMe2-N-3Pya-Sar-CONH2] ({Decanoyl(3,6,9-trioxa)}-[X24][Pen]D(NMe2)T[Trp(7-Me)][Lys(Me)](Ac)[Pen][AEF][2Nal][Thp]E(NMe2)N[3Pal][Sar]-NH2; disulfide 2-7), for which the pIC50 in data set [1] is 8.80. Further, the EPSA in data set [2] stood at 155 A^2.
In the case of `CC(=O)N(C)CCCC[C@@H]1NC(=O)[C@H](Cc2c[nH]c3c(C)cccc23)NC(=O)[C@H]([C@@H](C)O)NC(=O)[C@H](CC(=O)N(C)C)NC(=O)[C@@H](NC(=O)CCOCCOCC[N+](C)(C)C)C(C)(C)SSC(C)(C)[C@@H](C(=O)N[C@@H](Cc2ccc(OCCN(CC[N+](C)(C)C)C(C)=O)cc2)C(=O)N[C@@H](Cc2ccc3ccccc3c2)C(=O)NC2(C(=O)N[C@@H](CCCCN(C)C(C)=O)C(=O)N[C@@H](CC(N)=O)C(=O)N[C@@H](Cc3cccnc3)C(=O)N(C)CC(=O)N(C)C)CCOCC2)NC1=O` [compound 207, cPEG3aCO-Pen(3)-N(N(Me)2)-T-7MeW-K(NMeAc)-Pen(3)-AEF(AcCh)-2Nal-THP-K(NMeAc)-N-3Pya-Sar-CON(Me)2] ({Me3N+(CH2)2O(CH2)2O(CH2)2CO}-[Pen]D(NMe2)T[Trp(7-Me)][Lys(Me)](Ac)[Pen]Y(X54)[2Nal][Thp][Lys(Me)](Ac)N[3Pal][Sar]-NMe2; disulfide 1-6), the pIC50 in data set [1] is 8.49. For the same compound, the EPSA in data set [2] turned out to be 139 A^2.
